Measurements: patent US8134015B2, “Compound inhibiting in vivo phosphorous transport and medicine containing the same” (Kyowa Hakko Kirin Co., Ltd., priority 2003, dated 2012)

Columns and labels:
[1] = target: T1, rat NaPi-2b (Rattus norvegicus, UniProt Q9JJ09); test: Sodium-dependent phosphate uptake of Xenopus oocytes which expressed NaPi-2b (32P); type: cell-based; details: Xenopus oocytes expressing rat NaPi-2b, 32P radioactive phosphorus; read-out: IC50 (phosphate uptake inhibitory activity)
T1 construct: expressed in transfected cells; host or cells: Xenopus oocytes injected with cRNA
T1 sequence (Q9JJ09 1-695): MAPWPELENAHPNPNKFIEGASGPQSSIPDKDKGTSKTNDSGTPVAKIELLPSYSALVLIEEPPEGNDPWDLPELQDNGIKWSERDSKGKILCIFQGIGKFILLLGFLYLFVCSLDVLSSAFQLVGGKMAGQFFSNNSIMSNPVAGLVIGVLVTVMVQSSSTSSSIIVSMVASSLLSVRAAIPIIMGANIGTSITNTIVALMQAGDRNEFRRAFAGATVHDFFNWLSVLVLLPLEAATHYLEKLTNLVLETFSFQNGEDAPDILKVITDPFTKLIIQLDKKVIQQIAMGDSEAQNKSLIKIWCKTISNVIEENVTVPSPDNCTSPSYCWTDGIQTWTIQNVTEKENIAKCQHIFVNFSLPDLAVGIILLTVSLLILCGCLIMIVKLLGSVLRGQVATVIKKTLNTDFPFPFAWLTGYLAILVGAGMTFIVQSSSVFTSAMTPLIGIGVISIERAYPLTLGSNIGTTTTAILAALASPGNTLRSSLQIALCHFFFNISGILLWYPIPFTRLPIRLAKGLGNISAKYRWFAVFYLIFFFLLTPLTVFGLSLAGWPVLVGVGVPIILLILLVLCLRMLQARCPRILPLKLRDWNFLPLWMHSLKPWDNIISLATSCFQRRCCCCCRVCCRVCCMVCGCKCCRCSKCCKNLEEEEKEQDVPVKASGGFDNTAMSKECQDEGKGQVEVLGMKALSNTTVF
Outline: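 Read-out is 32P phosphate uptake into Xenopus oocytes expressing rat intestinal NaPi-2b (cRNA injection, 2-day culture). Inhibition at 300 μM and 100 μM was derived from a single inhibition curve and given as percent.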

[2] = target: T2, human NaPi-2a (Homo sapiens, UniProt Q06495); test: Sodium-dependent phosphate uptake of Xenopus oocytes which expressed NaPi-2a (32P); type: cell-based; details: phosphate uptake, Xenopus oocytes expressing human NaPi-2a; five concentration levels
T2 construct: expressed in transfected cells
T2 sequence (Q06495 1-639): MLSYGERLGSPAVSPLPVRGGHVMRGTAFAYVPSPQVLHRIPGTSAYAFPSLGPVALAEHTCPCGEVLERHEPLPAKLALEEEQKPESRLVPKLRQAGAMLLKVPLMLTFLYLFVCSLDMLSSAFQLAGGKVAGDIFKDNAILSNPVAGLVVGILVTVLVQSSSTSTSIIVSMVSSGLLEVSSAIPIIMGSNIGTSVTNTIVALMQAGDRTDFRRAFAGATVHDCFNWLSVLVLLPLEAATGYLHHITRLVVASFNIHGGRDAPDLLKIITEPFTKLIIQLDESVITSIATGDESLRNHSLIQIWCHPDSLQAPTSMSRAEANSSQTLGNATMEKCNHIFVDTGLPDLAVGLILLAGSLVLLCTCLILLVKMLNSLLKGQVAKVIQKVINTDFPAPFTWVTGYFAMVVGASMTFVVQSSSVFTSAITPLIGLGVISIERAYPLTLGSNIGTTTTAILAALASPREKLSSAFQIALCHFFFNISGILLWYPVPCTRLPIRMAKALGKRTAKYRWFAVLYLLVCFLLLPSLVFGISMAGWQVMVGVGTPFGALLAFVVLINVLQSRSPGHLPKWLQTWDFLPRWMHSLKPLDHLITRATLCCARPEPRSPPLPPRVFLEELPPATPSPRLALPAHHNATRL
Source text: Experiment of Sodium-Dependent Phosphate Uptake of Xenopus oocytes which Expressed NaPi-2a
In the test, a group with the addition of choline chloride (Choline Cl) was used as a negative control for nonspecific uptake, and PFA (phosphonoformic acid) was used as a positive control for phosphate transport inhibition.

| SMILES | IC50 [1] | IC50 [2] |
| --- | --- | --- |
| O=C(Nc1sc2ccccc2c1C(=O)N/N=C/c1cccc(F)c1)c1cccc(CN2CCC(CO)CC2)c1 [Compound 801, N-[3-(3-Fluoro-benzylidene-hydrazinocarbonyl)-benzo[b]thiophen-2-yl]-3-(4-hydroxymethyl-piperidin-1-ylmethyl)-benzamide] | 4.7 µM | 3.72 µM |
| O=C(Nc1sc2ccccc2c1C(=O)N/N=C/c1ccc(Cl)c(C(F)(F)F)c1)c1cccc(CN2CCC(CO)CC2)c1 [Compound 802, N-[3-(4-Chloro-3-trifluoromethyl-benzylidene-hydrazinocarbonyl)-benzo[b]thiophen-2-yl]-3-(4-hydroxymethyl-piperidin-1-ylmethyl)-benzamide] | 1.2 µM | 5.96 µM |
| CCN(CC)CCNCc1cccc(C(=O)Nc2sc3c(c2C(=O)N/N=C/c2ccc(C)cc2)CCC3)c1 [Compound 811, 3-[(2-Diethylamino-ethylamino)-methyl]-N-[3-(4-methyl-benzylidene-hydrazinocarbonyl)-5,6-dihydro-4H-cyclopenta[b]thiophen-2-yl]-benzamide] | 9.11 µM | 37.2 µM |
| CCN(CC)CCNCc1cccc(C(=O)Nc2sc3c(c2C(=O)N/N=C/c2ccc(F)cc2)CCC3)c1 [Compound 813, 3-[(2-Diethylamino-ethylamino)-methyl]-N-[3-(4-fluoro-benzylidene-hydrazinocarbonyl)-5,6-dihydro-4H-cyclopenta[b]thiophen-2-yl]-benzamide] | 6.25 µM | 35.6 µM |
| CCN(CC)CCNCc1cccc(C(=O)Nc2sc3c(c2C(=O)N/N=C/c2ccc(Cl)c(C(F)(F)F)c2)CCC3)c1 [Compound 814, N-[3-(4-Chloro-3-trifluoromethyl-benzylidene-hydrazinocarbonyl)-5,6-dihydro-4H-cyclopenta[b]thiophen-2-yl]-3-[(2-diethylamino-ethylamino)-methyl]-benzamide] | < 3 µM | 18.3 µM |
| O=C(Nc1sc2c(c1C(=O)N/N=C/c1ccc(F)cc1)CCC2)c1cccc(CN2CCC(CO)CC2)c1 [Compound 818, N-[3-(4-Fluoro-benzylidene-hydrazinocarbonyl)-5,6-dihydro-4H-cyclopenta[b]thiophen-2-yl]-3-(4-hydroxymethyl-piperidin-1-ylmethyl)-benzamide] | 7.38 µM | 31.4 µM |
| Cc1ccc(/C=N/NC(=O)c2c(C)csc2NC(=O)c2cccc(CN(C)C)c2)cc1C [Compound 822, 3-Dimethylaminomethyl-N-[3-(3,4-dimethyl-benzylidene-hydrazinocarbonyl)-4-methyl-thiophen-2-yl]-benzamide] | 5.9 µM | 18 µM |
| Cc1csc(NC(=O)c2cccc(CN(C)C)c2)c1C(=O)N/N=C/c1ccc(Cl)c(C(F)(F)F)c1 [Compound 824, N-[3-(4-Chloro-3-trifluoromethyl-benzylidene-hydrazinocarbonyl)-4-methyl-thiophen-2-yl]-3-dimethylaminomethyl-benzamide] | 3.22 µM | 8.19 µM |
| Cc1ccc(/C=N/NC(=O)c2c(C)csc2NC(=O)c2cccc(CN3CCN(c4ncccn4)CC3)c2)cc1 [Compound 827, N-[4-Methyl-3-(4-methyl-benzylidene-hydrazinocarbonyl)-thiophen-2-yl]-3-(4-pyrimidin-2-yl-piperazin-1-ylmethyl)-benzamide] | 3.5 µM | 24.4 µM |
| Cc1csc(NC(=O)c2cccc(CN3CCN(c4ncccn4)CC3)c2)c1C(=O)N/N=C/c1ccc(F)cc1 [Compound 828, N-[3-(4-Fluoro-benzylidene-hydrazinocarbonyl)-4-methyl-thiophen-2-yl]-3-(4-pyrimidin-2-yl-piperazin-1-ylmethyl)-benzamide] | 9.33 µM | 10 µM |
| Cc1csc(NC(=O)c2cccc(CN3CCN(c4ncccn4)CC3)c2)c1C(=O)N/N=C/c1ccc(Cl)c(C(F)(F)F)c1 [Compound 830, N-[3-(4-Chloro-3-trifluoromethyl-benzylidene-hydrazinocarbonyl)-4-methyl-thiophen-2-yl]-3-(4-pyrimidin-2-yl-piperazin-1-ylmethyl)-benzamide] | 4.81 µM | 10.7 µM |
| Cc1ccc(/C=N/NC(=O)c2c(C)csc2NC(=O)c2cccc(CN3CCC4(CC3)OCCO4)c2)cc1C [Compound 832, N-[3-(3,4-Dimethyl-benzylidene-hydrazinocarbonyl)-4-methyl-thiophen-2-yl]-3-(1,4-dioxa-8-aza-spiro[4,5]dec-8-ylmethyl)-benzamide] | 4.97 µM | 6.4 µM |

Second part, the compound after the results:

| IC50 [1] | IC50 [2] | SMILES |
| --- | --- | --- |
| 9.24 µM | 10 µM | O=C(Nc1sc2ccccc2c1C(=O)N/N=C/c1ccc(F)cc1)c1cccc(CN2CCC(CO)CC2)c1 [Compound 800, N-[3-(4-Fluoro-benzylidene-hydrazinocarbonyl)-benzo[b]thiophen-2-yl]-3-(4-hydroxymethyl-piperidin-1-ylmethyl)-benzamide] |
| 3.9 µM | 12.1 µM | CC(O)CN(Cc1cccc(C(=O)Nc2sc3c(c2C(=O)N/N=C/c2cccc(F)c2)CCC3)c1)CC(C)O (stereo not shown) [Compound 806, 3-{[Bis-(2-hydroxy-propyl)-amino]-methyl}-N-[3-(3-fluoro-benzylidene-hydrazinocarbonyl)-5,6-dihydro-4H-cyclopenta[b]thiophen-2-yl]-benzamide] |
| < 1 µM | 9.07 µM | CC(O)CN(Cc1cccc(C(=O)Nc2sc3c(c2C(=O)N/N=C/c2ccc(F)cc2)CCC3)c1)CC(C)O (stereo not shown) [Compound 807, 3-{[Bis-(2-hydroxy-propyl)-amino]-methyl}-N-[3-(4-fluoro-benzylidene-hydrazinocarbonyl)-5,6-dihydro-4H-cyclopenta[b]thiophen-2-yl]-benzamide] |
| 6.68 µM | 23.8 µM | CCN(CC)CCNCc1cccc(C(=O)Nc2sc3c(c2C(=O)N/N=C/c2ccc(C)c(C)c2)CCC3)c1 [Compound 810, 3-[(2-Diethylamino-ethylamino)-methyl]-N-[3-(3,4-dimethyl-benzylidene-hydrazinocarbonyl)-5,6-dihydro-4H-cyclopenta[b]-thiophen-2-yl]-benzamide] |
| 3.91 µM | < 3 µM | Cc1csc(NC(=O)c2cccc(CN3CCN(c4ncccn4)CC3)c2)c1C(=O)N/N=C/c1cccc(F)c1 [Compound 829, N-[3-(3-Fluoro-benzylidene-hydrazinocarbonyl)-4-methyl-thiophen-2-yl]-3-(4-pyrimidin-2-yl-piperazin-1-ylmethyl)-benzamide] |
| 3.88 µM | 28.8 µM | COc1ccc(/C=N/NC(=O)c2c(C)csc2NC(=O)c2cccc(CN3CCN(c4ncccn4)CC3)c2)cc1 [Compound 831, N-[3-(4-Methoxy-benzylidene-hydrazinocarbonyl)-4-methyl-thiophen-2-yl]-3-(4-pyrimidin-2-yl-piperazin-1-ylmethyl)-benzamide] |
| 7.89 µM | 38.1 µM | Cc1ccc(/C=N/NC(=O)c2c(C)csc2NC(=O)c2cccc(CN3CCC4(CC3)OCCO4)c2)cc1 [Compound 833, 3-(1,4-Dioxa-8-aza-spiro[4,5]dec-8-ylmethyl]-N-[4-methyl-3-(4-methyl-benzylidene-hydrazinocarbonyl)-thiophen-2-yl]-benzamide] |
| 19 µM | 52.1 µM | Cc1csc(NC(=O)c2cccc(CN3CCC4(CC3)OCCO4)c2)c1C(=O)N/N=C/c1ccc(F)cc1 [Compound 834, 3-(1,4-Dioxa-8-aza-spiro[4,5]dec-8-ylmethyl]-N-[3-(4-fluoro-benzylidene-hydrazinocarbonyl)-4-methyl-thiophen-2-yl]-benzamide] |
